Source: patent US20260207604A1, “COMPOUND AND USE THEREOF” (ONQUALITY PHARMACEUTICALS CHINA LTD., priority 2022, published 2026)

Assay: Single-dose intravenous and oral pharmacokinetic study in mice
Format: in vivo, Balb/c mice
Conditions: mouse; male Balb/c mice, PO 50 mg/kg, plasma
Procedure: Twenty-seven male Balb/c mice were randomly divided into 3 groups, 9 mice in each group. Group 1: mice received an intravenous (IV) dose of Compound 1 at 5 mg/kg with a dosing volume of 5 mL/kg. Blood samples were collected at 0.083, 0.25, 0.5, 1, 2, 4, 6, 8, and 24 hours post-dose using a staggered sampling method. Group 2: mice received an oral (gavage) dose of Compound 1 at 50 mg/kg with a dosing volume of 10 mL/kg. Blood samples were collected at 0.25, 0.5, 1, 2, 4, 6, 8, and 24 hours post-dose using a staggered sampling method. Group 3: mice received an oral (gavage) dose of palbociclib at 50 mg/kg with a dosing volume of 10 mL/kg. Blood samples were collected at 1, 3, 4, 6, 8, 10, 12, and 24 hours post-dose using a staggered sampling method. For each group, 3 samples were collected at each time point. Plasma was separated by centrifugation and stored at −70° C. The concentrations of Compound 1 or palbociclib in plasma were measured using LC-MS/MS.

AUC(0-t): 18300 ng·h/mL
Cmax: 1320 ng/mL
Tmax: 8 h
half-life: 7.64 h
Structure (SMILES): CC(=O)c1c(C)c2cnc(Nc3ccc(N4CCNCC4)cn3)nc2n(C2CCCC2)c1=O [palbociclib, reference compound]
